In US20180193372A1, “NOVEL BIOMARKER FOR DIAGNOSING RESISTANCE TO ANTICANCER AGENT FOR BILLARY TRACT CANCER AND USE THEREOF” (COWELL BIODIGM CO., LTD., priority 2015, published 2018):
pIC50: −log10 of the molar value.

Columns and labels:
[1] = test system: SNU1196/GR cells; assay: MTT assay of anticancer agent susceptibility after inhibiting TAGLN2 expression; type: cell-based, human; details: for change in susceptibility to anticancer agent when TAGLN2 expression was inhibited: TAGLN2 siRNA transfection
Experimental: As siRNA for TAGLN2, sc-106633 produced by Santa Cruz Biotechnology was used, and as control siRNA, sc-37007 (Santa Cruz Biotechnology) was used. An anticancer agent (gemcitabine)-resistant biliary tract cancer cell line SNU1196/GR was transfected with each of control siRNA and TAGLN2 siRNA using a lipofectamine RNAiMAX transfection reagent (Invitrogen), and after 24 hours, was cultured for 72 hours by treating with gemcitabine at various concentrations. The cell line reacted with an MTT solution (Sigma-Aldrich) for 3 hours, and then absorbance at 570 nm was measured by treating with DMSO to determine whether the anticancer agent resistance was overcome through inhibition of TAGLN2 expression in the anticancer agent-resistant biliary tract cancer cell line. The inhibition of the expression by TAGLN2 siRNA was confirmed by western blotting after 72 hours of the transfection.

[2] = test system: SNU1196/P cells; assay: MTT assay with gemcitabine, parent cell line; type: cell-based; details: Homo sapiens, 10 nM stated to be lower than the IC50, read-out: IC50 concentration of parent cell line
Experimental: (§1) To create an anticancer agent-resistant biliary tract cancer cell line, a SNU1196 cell line was treated with gemcitabine at various concentrations and then subjected to MTT assay to calculate an IC50 value, and the cells were treated with gemcitabine at a concentration of IC50 for 3 days. After 3 days, when the cells were recovered after being cultured in a drug-free growth medium [10% fetal bovine serum (FBS; Hyclone)-containing RPMI1640 (Invitrogen Gibco)], the cells were recovered by treating with gemcitabine at double the IC50 concentration for 3 days, and an anticancer agent-resistant cell line (named SNU1196/GR) was established by repeating such a cell culturing procedure for 1 year. Whether the resistance to the anticancer agent was acquired was confirmed by MTT assay.
Cells derived from biliary tract cancer cell line SNU1196 and anticancer agent-resistant biliary tract cancer cell line SNU1196/GR were attached to 96-well plates at 3×10^3 cells/well, and the following day, the cells were cultured for 72 hours by treating with gemcitabine at various concentrations. […] After 3 hours, the MTT solution was removed, and then absorbance was measured at 570 nm by adding dimethyl sulfoxide (DMSO) at 100 μl/well.

[3] = test system: SNU1196/GR cells; assay: MTT assay confirming resistance to anticancer agent (gemcitabine), resistant line; type: cell-based, human; details: SNU1196/GR vs SNU1196/P, 72 hours
Experimental: as §1, with “assay. Cells derived from biliary tract cancer cell line SNU1196 and anticancer agent-resistant biliary tract cancer cell line SNU1196/GR were attached to 96-well plates at 3×10^3 cells/well, and the following day, the cells were cultured for 72 hours by treating with gemcitabine at various concentrations. […] After 3 hours, the MTT solution was removed, and then absorbance was measured at 570 nm by adding dimethyl sulfoxide (DMSO) at 100 μl/well.” for “assay.”

Structure (SMILES) | change in susceptibility to anticancer agent when TAGLN2 expression was inhibited [1] | further results
O=c1[nH]cc(F)c(=O)[nH]1 [5-FU, 5-fluorourasil] | increased | 
N.N.O=C([O-])C1(C(=O)[O-])CCC1.[Pt+2] [carboplatin] | increased | 
N.N.[Cl][Pt][Cl] [cisplatin] | increased | 
C#Cc1cccc(Nc2ncnc3cc(OCCOC)c(OCCOC)cc23)c1 [erlotinib] | did not cause changes | 
COc1cc([C@@H]2c3cc4c(cc3[C@@H](O[C@@H]3O[C@@H]5CO[C@@H](C)O[C@H]5[C@H](O)[C@H]3O)[C@H]3COC(=O)[C@H]23)OCO4)cc(OC)c1O [etoposide] | did not cause changes | 
Nc1ccn([C@@H]2O[C@H](CO)[C@@H](O)C2(F)F)c(=O)n1 [gemcitabine] |  | increase of anticancer agent susceptibility ([1]; co-treatment with TAGLN2 siRNA, gemcitabine 10 nM): 43%; pIC50 [2]: < 8.00; IC50 value of SNU1196/GR cells for gemcitabine relative to parent cell line [3]: 100 times
CCc1c2c(nc3ccc(OC(=O)N4CCC(N5CCCCC5)CC4)cc13)-c1cc3c(c(=O)n1C2)COC(=O)[C@]3(O)CC [irinotecan] | did not cause changes | 
O=C1[O][Pt]2([NH][C@@H]3CCCC[C@H]3[NH]2)[O]C1=O [oxaliplatin] | increased | 
